Results as given in patent US9303012B2, “Pyridine-2-amides useful as CB2 agonists” (Hoffmann-La Roche Inc., priority 2012, dated 2016).

How the values were obtained:
human CB2 receptors = human CB2 receptors (Homo sapiens (Human), UniProt P34972); assay: functional cAMP assay, CHO cells expressing human CB2 receptors; format: cell-based
Outline: (§1)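 CHO-hCB1/hCB2 cells, KRB + 1 mM IBMX preincubation 30 min 30 °C; cpd 30 min 30 °C; lysis + TR-FRET cAMP detection, 2 h RT; cAMP from std curve; EC50.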

human CB1 receptors = human CB1 receptors (Homo sapiens (Human), UniProt P21554); assay: functional cAMP assay, CHO cells expressing human CB1 receptors; format: cell-based
Outline: as §1

human CB2 receptors, sequence (P34972 whole entry): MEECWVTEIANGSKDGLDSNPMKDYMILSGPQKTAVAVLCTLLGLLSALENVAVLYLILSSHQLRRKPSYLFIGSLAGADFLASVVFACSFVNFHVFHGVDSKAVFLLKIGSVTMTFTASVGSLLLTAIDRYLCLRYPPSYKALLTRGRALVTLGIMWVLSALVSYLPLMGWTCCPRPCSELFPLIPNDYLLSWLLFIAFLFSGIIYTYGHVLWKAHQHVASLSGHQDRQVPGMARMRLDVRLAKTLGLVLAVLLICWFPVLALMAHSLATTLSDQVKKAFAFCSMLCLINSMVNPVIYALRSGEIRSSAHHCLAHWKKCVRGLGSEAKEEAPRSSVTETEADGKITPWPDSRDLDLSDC
human CB1 receptors, sequence (P21554 whole entry): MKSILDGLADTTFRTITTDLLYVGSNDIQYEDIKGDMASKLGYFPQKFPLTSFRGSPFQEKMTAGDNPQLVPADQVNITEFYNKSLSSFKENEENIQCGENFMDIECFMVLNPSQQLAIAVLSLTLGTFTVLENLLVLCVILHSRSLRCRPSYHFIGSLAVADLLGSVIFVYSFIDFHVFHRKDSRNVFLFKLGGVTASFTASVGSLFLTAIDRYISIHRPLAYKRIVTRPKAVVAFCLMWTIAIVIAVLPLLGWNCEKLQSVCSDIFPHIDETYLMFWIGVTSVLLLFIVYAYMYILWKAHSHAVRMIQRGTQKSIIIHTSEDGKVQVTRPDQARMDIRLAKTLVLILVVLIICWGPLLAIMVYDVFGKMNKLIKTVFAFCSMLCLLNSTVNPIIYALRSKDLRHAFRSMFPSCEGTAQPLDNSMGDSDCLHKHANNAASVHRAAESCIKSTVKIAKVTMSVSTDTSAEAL

| Compound | EC50 (human CB2 receptors) | EC50 (human CB1 receptors) |
| --- | --- | --- |
| CCOC(=O)C1C2CN(C(=O)c3ccc(N4CC(F)(F)C4)c(OCC4CC4)n3)CC21 (centres unmarked) [Example 107, 3-[6-Cyclopropylmethoxy-5-(3,3-difluoro-azetidin-1-yl)-pyridine-2-carbonyl]-3-aza-bicyclo[3.1.0]hexane-6-carboxylic acid ethyl ester] | 757 nM | > 10000 nM |
| COC(=O)C1CCCN1C(=O)c1ccc(N2CC(F)(F)C2)c(OCC2CC2)n1 (centres unmarked) [Example 108, 1-[6-Cyclopropylmethoxy-5-(3,3-difluoro-azetidin-1-yl)-pyridine-2-carbonyl]-pyrrolidine-2-carboxylic acid methyl ester] | 156 nM | > 10000 nM |
| O=C(OCc1ccccc1)N1CCN(C(=O)c2ccc(N3CC(F)(F)C3)c(OCC3CC3)n2)CC1 [Example 109, 4-[6-Cyclopropylmethoxy-5-(3,3-difluoro-azetidin-1-yl)-pyridine-2-carbonyl]-piperazine-1-carboxylic acid benzyl ester] | 360 nM | > 10000 nM |
| O=C(O)C1C2CN(C(=O)c3ccc(N4CC(F)(F)C4)c(OCC4CC4)n3)CC21 (centres unmarked) [Example 110, 3-[6-Cyclopropylmethoxy-5-(3,3-difluoro-azetidin-1-yl)-pyridine-2-carbonyl]-3-aza-bicyclo[3.1.0]hexane-6-carboxylic acid] | 386 nM | > 10000 nM |
| CC(C)(C)OC(=O)N1CCC2(CCCN2C(=O)c2ccc(C3CC3)c(Cc3ccc(F)cc3)n2)CC1 [Example 111, 1-[5-Cyclopropyl-6-(4-fluoro-benzyl)-pyridine-2-carbonyl]-1,8-diaza-spiro[4.5]decane-8-carboxylic acid tert-butyl ester] | 8 nM | 2780 nM |
| NC(=O)[C@@H]1CSCN1C(=O)c1ccc(N2CC(F)(F)C2)c(OCC2CC2)n1 [Example 112, (−)-3-[6-Cyclopropylmethoxy-5-(3,3-difluoro-azetidin-1-yl)-pyridine-2-carbonyl]-thiazolidine-4-carboxylic acid amide] | 19.8 nM | > 10000 nM |
| O=C(c1ccc(C2CC2)c(Cc2ccc(F)cc2)n1)N1CCCC12CCNCC2 [Example 113, [5-Cyclopropyl-6-(4-fluoro-benzyl)-pyridin-2-yl]-(1,8-diaza-spiro[4.5]dec-1-yl)-methanone] | 212 nM | > 10000 nM |
| NC(=O)C1CCCN1C(=O)c1ccc(N2CC(F)(F)C2)c(OCC2CC2)n1 (centres unmarked) [Example 114, 1-[6-Cyclopropylmethoxy-5-(3,3-difluoro-azetidin-1-yl)-pyridine-2-carbonyl]-pyrrolidine-2-carboxylic acid amide] | 473 nM | > 10000 nM |
| NC(=O)[C@@H]1CS(=O)(=O)CN1C(=O)c1ccc(C2CC2)c(OCC2CC2)n1 [Example 115, (−)-3-(5-Cyclopropyl-6-cyclopropylmethoxy-pyridine-2-carbonyl)-1,1-dioxo-1λ^6-thiazolidine-4-carboxylic acid amide] | 7.2 nM | > 10000 nM |
| NC(=O)[C@H]1CS(=O)(=O)CN1C(=O)c1ccc(C2CC2)c(OCC2CC2)n1 [Example 117, (+)-3-(5-Cyclopropyl-6-cyclopropylmethoxy-pyridine-2-carbonyl)-1,1-dioxo-1λ^6-thiazolidine-4-carboxylic acid amide] | 485 nM | > 10000 nM |
| O=C(c1ccc(N2CC(F)(F)C2)c(OCC2CC2)n1)N1CC(F)(F)C(F)(F)C1 [Example 118, [6-Cyclopropylmethoxy-5-(3,3-difluoro-azetidin-1-yl)-pyridin-2-yl]-(3,3,4,4-tetrafluoro-pyrrolidin-1-yl)-methanone] | 13.2 nM | > 10000 nM |
| CC1CN(C(=O)c2ccc(N3CC(F)(F)C3)c(OCC3CC3)n2)CC(C)O1 (centres unmarked) [Example 119, [6-Cyclopropylmethoxy-5-(3,3-difluoro-azetidin-1-yl)-pyridin-2-yl]-(2,6-dimethyl-morpholin-4-yl)-methanone] | 599 nM | > 10000 nM |
| CC1(C)SCN(C(=O)c2ccc(N3CC(F)(F)C3)c(OCC3CC3)n2)[C@@H]1C(N)=O [Example 120, (R)-3-[6-Cyclopropylmethoxy-5-(3,3-difluoro-azetidin-1-yl)-pyridine-2-carbonyl]-5,5-dimethyl-thiazolidine-4-carboxylic acid amide] | 42 nM | > 10000 nM |
| CC1(C)CC[C@@H](C(N)=O)N1C(=O)c1ccc(N2CC(F)(F)C2)c(OCC2CC2)n1 [Example 121, (S)-1-[6-Cyclopropylmethoxy-5-(3,3-difluoro-azetidin-1-yl)-pyridine-2-carbonyl]-5,5-dimethyl-pyrrolidine-2-carboxylic acid amide] | 112 nM | > 10000 nM |
| NC(=O)C1CSCN1C(=O)c1ccc(N2CC(F)(F)C2)c(OCC2CC2)n1 (centres unmarked) [Example 122, 3-[6-Cyclopropylmethoxy-5-(3,3-difluoro-azetidin-1-yl)-pyridine-2-carbonyl]-thiazolidine-4-carboxylic acid amide] | 50 nM | > 10000 nM |
| NC(=O)[C@@H]1C[C@@H](F)CN1C(=O)c1ccc(C2CC2)c(OCC2CC2)n1 [Example 123, (2S,4R)-1-[5-Cyclopropyl-6-(cyclopropylmethoxy)pyridine-2-carbonyl]-4-fluoropyrrolidine-2-carboxamide] | 58.4 nM | > 10000 nM |
| NC(=O)C1C[S+]([O-])CN1C(=O)c1ccc(N2CC(F)(F)C2)c(OCC2CC2)n1 (centres unmarked) [Example 124, 3-[6-(Cyclopropylmethoxy)-5-(3,3-difluoroazetidin-1-yl)pyridine-2-carbonyl]-1-oxo-1,3-thiazolidine-4-carboxamide] | 52.6 nM | > 10000 nM |
| NC(=O)C1CS(=O)(=O)CN1C(=O)c1ccc(N2CC(F)(F)C2)c(OCC2CC2)n1 (centres unmarked) [Example 125, 3-[6-(Cyclopropylmethoxy)-5-(3,3-difluoroazetidin-1-yl)pyridine-2-carbonyl]-1,1-dioxo-1,3-thiazolidine-4-carboxamide] | 9.5 nM | > 10000 nM |
| NC(=O)[C@@H]1C[C@@H](F)CN1C(=O)c1ccc(N2CC(F)(F)C2)c(OCC2CC2)n1 [Example 126, (2S,4R)-1-[6-(Cyclopropylmethoxy)-5-(3,3-difluoroazetidin-1-yl)pyridine-2-carbonyl]-4-fluoropyrrolidine-2-carboxamide] | 40 nM | > 10000 nM |
| NC(=O)[C@@H]1CS(=O)(=O)CN1C(=O)c1ccc(N2CC(F)(F)C2)c(OCC2CC2)n1 [Example 127, (−)-3-[6-(Cyclopropylmethoxy)-5-(3,3-difluoroazetidin-1-yl)pyridine-2-carbonyl]-1,1-dioxo-1,3-thiazolidine-4-carboxamide] | 3.4 nM | > 10000 nM |
| COC1CN(c2ccc(C(=O)N3CS(=O)(=O)CC3C(N)=O)nc2OCC2CC2)C1 (centres unmarked) [Example 128, 3-[6-(Cyclopropylmethoxy)-5-(3-methoxyazetidin-1-yl)pyridine-2-carbonyl]-1,1-dioxo-1,3-thiazolidine-4-carboxamide] | 30.2 nM | > 10000 nM |
| NC(=O)[C@@H]1CC(F)(F)CN1C(=O)c1ccc(C2(O)CCC2)c(OCC2CC2)n1 [Example 129, (2S)-1-[6-(Cyclopropylmethoxy)-5-(1-hydroxycyclobutyl)pyridine-2-carbonyl]-4,4-difluoropyrrolidine-2-carboxamide] | 75.8 nM | > 10000 nM |
